# pIC50: −log10 of the molar value.
# Experiments:
# Type in all cases: functional
# CCRF-CEM = assay: In vitro inhibitory activity against the growth of CCRF-CEM human T lymphoblastic leukemia.; details: read-out: ID50 (the source's name)
# Homo sapiens = organism: Homo sapiens; assay: In vitro Inhibitory activity against the growth of WIL-2 human B lymphoblastic leukemia.
# L1210 = assay: In vitro Inhibitory activity against the growth of L1210 murine lymphocytic leukemia; details: Mus musculus, read-out: ID50 (the source's name)
smiles,measurement,setting,value
CC1=CSCC(=O)N1,pIC50,CCRF-CEM,4.45
same,ID50,Homo sapiens,41.7 µM
same,pIC50,L1210,5.52
